The text below walks through data of paper PMC3465485 (Antiviral research, 2012).

Where two headings read alike, the source gives them in different places.

The test system of data set [1] is influenza A/California/07/2009 (H1N1) virus. The data set is described as follows: microbe, parasite or virus in culture. The conditions noted are these: H1N1, MDCK.
Data set [2] in a line: in vitro. The conditions noted are these: dog.
The subject of data set [3] is influenza A/California/07/2009 (H1N1) virus.
The test system of data set [4] is MDCK cells.
Data set [5] addresses A/California/07/2009 neuraminidase (Influenza A virus (A/California/07/2009(H1N1)), UniProt C3W6G3). It is filed as biochemical.
The conditions of data set [6]: 100 mg/kg/day; no reference given; cited from earlier work.

What is called EC50 is the midpoint of the concentration-response curve. Take `NC12CC3CC(CC(C3)C1)C2` [Amantadine]: the EC50 in data set [1] was over 100 µM. The compound also had a CC50 in data set [2] of over 100 µM. For the same compound, in data set [3], the “antiviral activity in cell culture (in words)” value is on record as “no antiviral effect”.
In general, IC50 refers to the concentration at which inhibition is half-maximal. Lower therefore signals greater potency in that assay. In data set [4], Peramivir registered a CC50 of over 100 µM. This compound gave an IC50 in data set [5] of 2.9 ± 0.6 nM. In data set [3], a half-maximal effect (EC50) was put at 40 ± 70 nM and the “SI (CC50/EC50)” value was over 2500.
As to `CCC(CC)O[C@@H]1C=C(C(=O)O)C[C@H](N)[C@H]1NC(C)=O` [Oseltamivir Carboxylate, Oseltamivir carboxylate], the “neuraminidase inhibition (in words)” value in data set [5] is “slightly less potent than the other two compounds”. Besides, in data set [2], the CC50 is over 100 µM. In addition, it took 60 ± 100 nM to reach a half-maximal effect in data set [3] (EC50).
In turn, `CC(N)C12CC3CC(CC(C3)C1)C2` (stereo not drawn) [Rimantadine] yielded an EC50 in data set [1] of over 22 µM. For the same compound, the CC50 in data set [2] was determined as 22 ± 1 µM. In addition, in data set [3], the “SI (CC50/EC50)” value is 0 and the “antiviral activity in cell culture (in words)” value is reported as “no antiviral effect”.
With `NC(=O)c1ncn([C@@H]2O[C@H](CO)[C@@H](O)[C@H]2O)n1` [Ribavirin], a half-maximal effect in data set [1] (EC50) was put at 28 ± 11 µM. In addition, in data set [6], the “toxicity in mice (in words)” value was “begins to cause toxicity”.
In turn, `CC(=O)N[C@H]1[C@H]([C@H](O)[C@H](O)CO)OC(C(=O)O)=C[C@@H]1N=C(N)N` [Zanamivir] displayed a CC50 in data set [2] of over 100 µM. For the same compound, in data set [3], the response was half-maximal at 80 ± 70 nM (EC50).
